Measurements: patent publication US20230365589A1, “NOVEL AMINE DERIVATIVES” (Sumitomo Pharma Co., Ltd., priority 2020, published 2023)
Read-outs that look alike come from different tables or passages of the source.

Tests used:
Format in all cases: biochemical
DYRK1A = molecular target: T1, DYRK1A (Homo sapiens, UniProt Q13627); assay: Inhibition test on activity of DYRK family, mobility shift assay (MSA): DYRK1A
T1 construct: purchased Carna Biosciences, Inc. 04-130
How it was run: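 IC50 derived by regressing inhibition rate on log compound concentration, using P/(P+S) peak ratios from electrophoretic separation. DYRK1A enzyme solution 0.2 ng/μL, substrate mix with 4 μM FITC-DYRKtide and 100 μM ATP, pH 7.5 HEPES; reaction run 1 h at room temperature.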

DYRK3 = molecular target: T2, DYRK3 (Homo sapiens, UniProt O43781); assay: Inhibition test on activity of DYRK family, mobility shift assay (MSA): DYRK3
T2 construct: purchased Carna Biosciences, Inc. 04-133
T2 sequence (O43781 1-568 isoform O43781-2): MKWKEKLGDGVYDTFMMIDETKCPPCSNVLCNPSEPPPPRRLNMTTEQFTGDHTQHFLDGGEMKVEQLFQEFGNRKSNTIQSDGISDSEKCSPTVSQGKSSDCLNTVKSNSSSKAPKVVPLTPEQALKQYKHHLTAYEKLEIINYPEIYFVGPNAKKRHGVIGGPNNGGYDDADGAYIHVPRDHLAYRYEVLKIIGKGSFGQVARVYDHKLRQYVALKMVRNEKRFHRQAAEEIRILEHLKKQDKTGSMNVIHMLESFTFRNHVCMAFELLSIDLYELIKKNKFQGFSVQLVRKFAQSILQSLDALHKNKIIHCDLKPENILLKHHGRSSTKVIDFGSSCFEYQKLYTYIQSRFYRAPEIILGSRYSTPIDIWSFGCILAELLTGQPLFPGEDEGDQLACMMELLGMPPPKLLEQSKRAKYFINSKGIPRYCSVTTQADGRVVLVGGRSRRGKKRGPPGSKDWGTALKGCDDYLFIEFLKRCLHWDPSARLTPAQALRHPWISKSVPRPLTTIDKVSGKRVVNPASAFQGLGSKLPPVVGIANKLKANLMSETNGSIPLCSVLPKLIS
How it was run: (§1)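 Reactions ran 1 h at room temperature in HEPES buffer pH 7.5 with FITC-DYRKtide as substrate. ATP in the substrate mix was 100 µM for DYRK1A, 200 µM for DYRK1B, 40 µM for DYRK2 and 20 µM for DYRK3. Phosphorylated and unphosphorylated peptide were separated on a LabChip, and IC50 was regressed on log dose.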

DYRK2 = molecular target: T3, DYRK2 (Homo sapiens, UniProt Q92630); assay: Inhibition test on activity of DYRK family, mobility shift assay (MSA): DYRK2
T3 construct: purchased Carna Biosciences, Inc. 04-132
T3 sequence (Q92630 74-601 limits assumed): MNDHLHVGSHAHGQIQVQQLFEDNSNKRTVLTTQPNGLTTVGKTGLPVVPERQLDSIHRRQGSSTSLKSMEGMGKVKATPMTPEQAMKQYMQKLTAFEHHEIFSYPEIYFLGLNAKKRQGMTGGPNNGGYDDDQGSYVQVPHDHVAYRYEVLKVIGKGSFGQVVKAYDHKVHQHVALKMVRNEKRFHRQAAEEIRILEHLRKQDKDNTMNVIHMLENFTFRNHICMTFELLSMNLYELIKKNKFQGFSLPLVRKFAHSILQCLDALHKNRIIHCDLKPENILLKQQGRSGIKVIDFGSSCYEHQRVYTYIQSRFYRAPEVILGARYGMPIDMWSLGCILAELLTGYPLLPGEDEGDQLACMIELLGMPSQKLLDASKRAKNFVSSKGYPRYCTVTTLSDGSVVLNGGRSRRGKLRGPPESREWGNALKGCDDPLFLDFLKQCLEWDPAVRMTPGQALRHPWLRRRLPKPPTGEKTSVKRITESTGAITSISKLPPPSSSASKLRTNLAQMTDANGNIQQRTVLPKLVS
How it was run: as §1

[1] = read-out: Inhibitory activity DYRK 1A
[2] = read-out: Inhibitory activity DYRK 3
[3] = read-out: Inhibitory activity DYRK 2
[4] = MSA, FITC-labeled DYRKtide peptide, ATP 100 μM, read-out: Inhibitory activity DYRK 1A (IC50 class)
[5] = MSA, FITC-labeled DYRKtide peptide, ATP 20 μM, read-out: Inhibitory activity DYRK 3 (IC50 class)
[6] = MSA, FITC-labeled DYRKtide peptide, ATP 40 μM, read-out: Inhibitory activity DYRK 2 (IC50 class)

IC50 (DYRK1A; [1]) | IC50 (DYRK3; [2]) | IC50 (DYRK2; [3]) | IC50 (DYRK1A; [4]) | IC50 (DYRK3; [5]) | IC50 (DYRK2; [6]) | SMILES
10 to 100 nM | ≥ 1000 nM | ≥ 1000 nM | – | – | – | C[C@@H]1NC(=O)N(c2nc3c4c(ccc3s2)OCC4)[C@@H]1CN1CC(F)(F)C1 [Example 116, (4S,5R)-5-[(3,3-difluoroazetidin-1-yl)methyl]-1-(7,8-dihydrofuro[3,2-e][1,3]benzothiazol-2-yl)-4-methylimidazolidin-2-one]
10 to 100 nM | ≥ 1000 nM | ≥ 1000 nM | – | – | – | C[C@@H]1NC(=O)N(c2nc3c4c(ccc3s2)OCC4)[C@@H]1CN1CCC(F)(F)C1 [Example 117, (4S,5R)-5-[(3,3-difluoropyrrolidin-1-yl)methyl]-1-(7,8-dihydrofuro[3,2-e][1,3]benzothiazol-2-yl)-4-methylimidazolidin-2-one]
< 10 nM | 100 to 1000 nM | 100 to 1000 nM | – | – | – | CC1(C)C[C@@H]2[C@H](CO1)NC(=O)N2c1nc2c3c(ccc2s1)OCC3 [Example 124, (3aR,7aR)-1-(7,8-dihydrofuro[3,2-e][1,3]benzothiazol-2-yl)-6,6-dimethylhexahydropyrano[3,4-d]imidazol-2(3H)-one]
10 to 100 nM | 100 to 1000 nM | 100 to 1000 nM | – | – | – | O=C1N[C@@H]2CCOC[C@H]2N1c1nc2c3c(ccc2s1)OCC3 [Example 125]
– | – | – | < 10 nM | 100 to 1000 nM | ≥ 1000 nM | O=C1N[C@H]2CO[C@@H](CO)C[C@H]2N1c1nc2c3c(ccc2s1)OCC3 [Example 144, (3aR,6R,7aR)-1-(7,8-dihydrofuro[3,2-e][1,3]benzothiazol-2-yl)-6-(hydroxymethyl)hexahydropyrano[3,4-d]imidazol-2(3H)-one]
– | – | – | 100 to 1000 nM | ≥ 1000 nM | ≥ 1000 nM | O=C1N[C@@H]2C[C@H](CO)OC[C@@H]2N1c1nc2c3c(ccc2s1)OCC3 [Example 145]
– | – | – | < 10 nM | 100 to 1000 nM | ≥ 1000 nM | O=C1N[C@H]2CO[C@@H](CO)C[C@H]2N1c1nc2c3c(ccc2s1)OCCO3 [Example 146, (3aR,6R, 7aR)-1-(7,8-dihydro[1,4]dioxino[2,3-e][1,3]benzothiazol-2-yl)-6-(hydroxymethyl)hexahydropyrano[3,4-d]imidazol-2(3H)-one]
– | – | – | < 10 nM | 100 to 1000 nM | ≥ 1000 nM | C#C[C@H]1C[C@@H]2[C@H](CO1)NC(=O)N2c1nc2c3c(ccc2s1)OCC3 [Example 149, (3aR,6R,7aR)-1-(7,8-dihydrofuro[3,2-e][1,3]benzothiazol-2-yl)-6-ethynylhexahydropyrano[3,4-d]imidazol-2(3H)-one]
– | – | – | 10 to 100 nM | 100 to 1000 nM | 100 to 1000 nM | O=C1N[C@H]2COC(O)C[C@H]2N1c1nc2c3c(ccc2s1)OCC3 (stereo partly drawn) [Example 150, (3aR,7aR)-1-(7,8-Dihydrofuro[3,2-e][1,3]benzothiazol-2-yl)-6-hydroxyhexahydropyrano[3,4-d]imidazol-2(3H)-one]

More lines, now with the values behind:

SMILES | IC50 (DYRK1A; [1]) | IC50 (DYRK3; [2]) | IC50 (DYRK2; [3]) | IC50 (DYRK1A; [4]) | IC50 (DYRK3; [5]) | IC50 (DYRK2; [6])
C[C@@H]1NC(=O)N(c2nc3c4c(ccc3s2)OCC4)[C@@H]1CN1CC[C@H](F)C1 [Example 115, (4S,5R)-1-(7,8-dihydrofuro[3,2-e][1,3]benzothiazol-2-yl)-5-{[(3S)-3-fluoropyrrolidin-1-yl]methyl}-4-methylimidazolidin-2-one] | 10 to 100 nM | ≥ 1000 nM | 100 to 1000 nM | – | – | –
C[C@@H]1NC(=O)N(c2nc3c4c(ccc3s2)OCC4)[C@@H]1CN1CC(F)C1 [Example 118, (4S,5R)-1-(7,8-dihydrofuro[3,2-e][1,3]benzothiazol-2-yl)-5-[(3-fluoroazetidin-1-yl)methyl]-4-methylimidazolidin-2-one] | 10 to 100 nM | ≥ 1000 nM | ≥ 1000 nM | – | – | –
CC1(C)C[C@H]2[C@@H](CO1)NC(=O)N2c1nc2c3c(ccc2s1)OCC3 [Example 123] | ≥ 1000 nM | ≥ 1000 nM | ≥ 1000 nM | – | – | –
O=C1N[C@@H]2COCC[C@H]2N1c1nc2c3c(ccc2s1)OCC3 [Example 126] | 100 to 1000 nM | 100 to 1000 nM | 100 to 1000 nM | – | – | –
N#C[C@H]1C[C@@H]2[C@H](CO1)NC(=O)N2c1nc2c3c(ccc2s1)OCC3 [Example 127, (3aR,6R,7aR)-1-(7,8-dihydrofuro[3,2-e][1,3]benzothiazol-2-yl)-2-oxooctahydropyrano[3,4-d]imidazole-6-carbonitrile] | < 10 nM | 100 to 1000 nM | 100 to 1000 nM | – | – | –
N#C[C@H]1C[C@H]2NC(=O)N(c3nc4c5c(ccc4s3)OCC5)[C@H]2CO1 [Example 128] | ≥ 1000 nM | ≥ 1000 nM | ≥ 1000 nM | – | – | –
CO[C@H]1C[C@@H]2[C@H](CO1)NC(=O)N2c1nc2c3c(ccc2s1)OCC3 [Example 129, (3aR,6R,7aR)-1-(7,8-dihydrofuro[3,2-e][1,3]benzothiazol-2-yl)-6-methoxyhexahydropyrano[3,4-d]imidazol-2(3H)-one] | 10 to 100 nM | 100 to 1000 nM | 100 to 1000 nM | – | – | –
CO[C@H]1C[C@H]2NC(=O)N(c3nc4c5c(ccc4s3)OCC5)[C@H]2CO1 [Example 130] | 100 to 1000 nM | ≥ 1000 nM | ≥ 1000 nM | – | – | –
N#C[C@H]1C[C@@H]2[C@H](CO1)NC(=O)N2c1nc2c3c(ccc2s1)OCO3 [Example 131, (3aR,6R,7aR)-1-(2H-[1,3]dioxolo[4,5-e][1,3]benzothiazol-7-yl)-2-oxooctahydropyrano[3,4-d]imidazole-6-carbonitrile] | < 10 nM | 100 to 1000 nM | 100 to 1000 nM | – | – | –
N#C[C@H]1C[C@H]2NC(=O)N(c3nc4c5c(ccc4s3)OCO5)[C@H]2CO1 [Example 132] | ≥ 1000 nM | ≥ 1000 nM | ≥ 1000 nM | – | – | –
N#C[C@H]1C[C@@H]2[C@H](CO1)NC(=O)N2c1nc2c3c(ccc2s1)OCCO3 [Example 133, (3aR,6R,7aR)-1-(7,8-dihydro[1,4]dioxino[2,3-e][1,3]benzothiazol-2-yl)-2-oxooctahydropyrano[3,4-d]imidazole-6-carbonitrile] | – | – | – | < 10 nM | 100 to 1000 nM | 100 to 1000 nM
C[C@H]1C[C@H]2NC(=O)N(c3nc4c5c(ccc4s3)OCC5)[C@H]2CO1 [Example 134] | – | – | – | 100 to 1000 nM | ≥ 1000 nM | ≥ 1000 nM
O=C1N[C@H]2COCCC[C@H]2N1c1nc2c3c(ccc2s1)OCCO3 [Example 135, (3aR,8aR)-1-(7,8-dihydro[1,4]dioxino[2,3-e][1,3]benzothiazol-2-yl)hexahydro-1H-oxepino[3,4-d]imidazol-2(3H)-one] | – | – | – | 10 to 100 nM | 100 to 1000 nM | 100 to 1000 nM
COC(=O)[C@H]1C[C@@H]2[C@H](CO1)NC(=O)N2c1nc2c3c(ccc2s1)OCC3 [Example 141] | – | – | – | 10 to 100 nM | ≥ 1000 nM | ≥ 1000 nM
O=C1N[C@H]2CO[C@@H](CO)C[C@H]2N1c1nc2c3c(ccc2s1)OCO3 [Example 147, (3aR,6R,7aR)-1-(2H-[1,3]dioxolo[4,5-e][1,3]benzothiazol-7-yl)-6-(hydroxymethyl)hexahydropyrano[3,4-d]imidazol-2(3H)-one] | – | – | – | < 10 nM | 100 to 1000 nM | ≥ 1000 nM
O=C1N[C@H]2COC(F)C[C@H]2N1c1nc2c3c(ccc2s1)OCC3 (stereo partly drawn) [Example 151, (3aR,7aR)-1-(7,8-Dihydrofuro[3,2-e][1,3]benzothiazol-2-yl)-6-fluorohexahydropyrano[3,4-d]imidazol-2(3H)-one] | – | – | – | < 10 nM | 10 to 100 nM | 100 to 1000 nM
O=C1C[C@@H]2[C@H](CO1)NC(=O)N2c1nc2c3c(ccc2s1)OCC3 [Example 152] | – | – | – | < 10 nM | 10 to 100 nM | 10 to 100 nM
